What all share (assay type): biochemical
Experiment [1] has as its target T1, Human PKK (Homo sapiens, UniProt P03952).
T1 construct: purchased Enzyme Research Laboratories
As to the kind of experiment: Inhibition of PKK using an endpoint assay (human PKK). Particulars: fluorogenic substrate H-Pro-Phe-Arg-AMC, 1 h room temperature, method names human or rat PKK, table does not say which. The gist of the method: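 Human PKK inhibition measured in 100 mM Tris, 150 mM NaCl, pH 7.8, 0.1% BSA, 0.05% Tween20, 1% DMSO. Endpoint format: reaction stopped with PPACK II at 1 μM final, fluorescence read at 355 nm excitation/460 nm emission.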

In experiment [2] the target is T2, PKK in kaolin activated human platelet poor plasma (Homo sapiens, UniProt P03952).
T2 construct: Platelet poor plasma (PPP) obtained from human wholeblood; from tissue
T2 sequence (P03952 391-638 limits assumed): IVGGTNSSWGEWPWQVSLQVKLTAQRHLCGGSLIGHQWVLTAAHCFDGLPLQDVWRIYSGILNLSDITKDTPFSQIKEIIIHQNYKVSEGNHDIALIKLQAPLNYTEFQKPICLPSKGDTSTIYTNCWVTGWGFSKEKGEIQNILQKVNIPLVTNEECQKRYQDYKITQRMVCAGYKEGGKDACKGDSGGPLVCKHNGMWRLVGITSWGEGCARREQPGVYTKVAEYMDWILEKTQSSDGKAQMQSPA
T2 sequence (P03952 20-390 limits assumed): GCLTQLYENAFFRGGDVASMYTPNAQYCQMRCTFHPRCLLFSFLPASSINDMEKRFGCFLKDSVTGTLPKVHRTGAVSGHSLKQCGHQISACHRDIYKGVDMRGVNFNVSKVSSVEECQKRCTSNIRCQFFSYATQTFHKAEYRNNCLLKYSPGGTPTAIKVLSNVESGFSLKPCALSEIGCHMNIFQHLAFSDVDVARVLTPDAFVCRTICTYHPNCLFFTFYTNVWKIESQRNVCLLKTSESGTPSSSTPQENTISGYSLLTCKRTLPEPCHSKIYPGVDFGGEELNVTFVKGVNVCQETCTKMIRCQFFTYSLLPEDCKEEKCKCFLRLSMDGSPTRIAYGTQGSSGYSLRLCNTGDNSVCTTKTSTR
Briefly: Inhibition of PKK in kaolin activated human PPP.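 Further: readout is the rate of fluorogenic substrate cleavage in rfu per min.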 As to conditions: 25-750 μg/mL kaolin, global fit, text b200 calls the values IC90. On the procedure: Platelet poor plasma (PPP) obtained from human wholeblood, anticoagulated with Na-Citrate, is incubated with various concentrations of the test compound together with either 25, 75, 250, or 750 μg/mL kaolin in assay buffer for 20 min at 37° C. such that for each kaolin dose used a concentration response is obtained for the test compound.

The target of experiment [3] is T3, human TK1 (Homo sapiens, UniProt P06870).
T3 construct: purchased R&D Systems
T3 sequence (P06870 25-262): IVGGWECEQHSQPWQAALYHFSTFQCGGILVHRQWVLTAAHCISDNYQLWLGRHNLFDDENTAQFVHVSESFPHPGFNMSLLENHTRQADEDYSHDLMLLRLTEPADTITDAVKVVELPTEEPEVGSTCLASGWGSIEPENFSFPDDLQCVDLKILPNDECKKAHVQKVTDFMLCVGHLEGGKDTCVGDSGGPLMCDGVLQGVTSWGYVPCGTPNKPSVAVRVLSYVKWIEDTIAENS
As to the kind of experiment: Inhibition of TK1 (Ki). As to conditions: activated human TK1, substrate H-Pro-Phe-Arg-AMC, 24° C. As to the method:
The ability of compounds of formula (I) to inhibit plasma kallikrein (PKK), Factor XIIa (FXIIa), Factor XIa (FXIa), Factor Xa (FXa), Factor IIa (alpha-thrombin; FIIa), plasmin, trypsin, tissue kallikrein 1 (TK1), Factor VIIa (FVIIa), or FVIIa complexed with Tissue Factor, phospholipids and CaCl2 (FVIIa/TF/PL/CaCl2) is determined using the following biochemical assays in assay buffer (100 mM Tris, 150 mM NaCL, adjusted to a pH of 7.8 with HCl, and containing 0.1% (w/v) BSA and 0.05% (v/v) Tween20) in the presence of 1% (v/v) DMSO:
Prior to the assay, human TK1 (R&D Systems) is activated by incubation with human trypsin (Calbiochem) in a 1:10,000 ratio for 15 min at 37° C. For assaying TK1 inhibitory activity, activated TK1 (31.25 nM or 1 U/mL) is incubated at 24° C. with 0.1 mM fluorogenic substrate H-Pro-Phe-Arg-AMC (11295 from Bachem) and various concentrations of the test compound in assay buffer. Measurements are performed in a kinetic interval every 2nd minute for 16 min using a Spectramax M5 (Molecular Devices) with the following settings of the wavelength excitation of 350 nm and wavelength emission of 450 nm.
The pIC50 values are then fitted using a four-parametric fitting procedure using GraphPad Prism (version 6; GraphPad Software, Inc.). Respective Ki values are obtained by correction of the IC50 values for the respective KM value of the used substrate (see Table A for the obtained KM values of the used substrates) using the following formula:
[formula] Where the IC50 is in molar and the KM value in mM.

T1 sequence (P03952 20-390 limits assumed): as the sequence (P03952 20-390 limits assumed) above
T1 sequence (P03952 391-638 limits assumed): as the sequence (P03952 391-638 limits assumed) above

As for `Cn1cnc2c1CC[C@H]2NC(=O)c1cn(Cc2ccc(N3CC4(CC4)C3)nc2C(F)F)nn1` [Example 4, 1-[(6-{5-Azaspiro[2.3]hexan-5-yl}-2-(difluoromethyl)-pyridin-3-yl)methyl]-N-[(4R)-1-methyl-1H,4H,5H,6H-cyclo-penta[d]imidazol-4-yl]-1H-1,2,3-triazole-4-carboxamide], the values for the IC50 in experiment [1] and in experiment [2] were 0.9 nM and 184 nM, respectively. Further, the Ki (in general, a dissociation constant, usually derived from enzyme kinetics or from competition with a known ligand) in experiment [3] was greater than 10000 nM.

With `Cn1cnc2c1CC[C@H]2NC(=O)c1cn(Cc2ccc(N3CC4(CC4)C3)nc2Br)cn1` [Example 16, 1-[(6-{5-Azaspiro[2.3]hexan-5-yl}-2-bromopyridin-3-yl)methyl]-N-[(4R)-1-methyl-1H,4H,5H,6H-cyclopenta[d]imidazol-4-yl]-1H-imidazole-4-carboxamide], the results for the IC50 in experiment [1] and in experiment [2] were 0.6 nM and 280 nM, respectively. In experiment [3], this molecule registered a Ki greater than 10000 nM.

`CCc1nc(N2CC3(CC3)C2)ccc1Cn1cc(C(=O)N[C@@H]2CCc3c2ncn3C)nn1` [Example 20, 1-[(6-{5-Azaspiro[2.3]hexan-5-yl}-2-ethylpyridin-3-yl)methyl]-N-[(4R)-1-methyl-1H,4H,5H,6H-cyclo-penta[d]imidazol-4-yl]-1H-1,2,3-triazole-4-carboxamide]: the 50% inhibitory concentration (IC50) – broadly, the concentration at which inhibition is half-maximal – in experiment [1] stood at 0.7 nM; in experiment [2], 99 nM. Moreover, the inhibition constant Ki in experiment [3] was greater than 10000 nM.

For `CCc1nc(N2CC3CC3C2)ccc1Cn1cc(C(=O)N[C@@H]2CCc3c2ncn3C)cn1` (stereo partly drawn) [Example 22, 1-[(6-{3-Azabicyclo[3.1.0]hexan-3-yl}-2-ethylpyridin-3-yl)methyl]-N-[(4R)-1-methyl-1H,4H,5H,6H-cyclopenta[d]imidazol-4-yl]-1H-pyrazole-4-carboxamide], the half-maximal inhibitory concentration (IC50) in experiment [1] amounted to 0.5 nM; in experiment [2], 249 nM. The same molecule displayed a Ki in experiment [3] greater than 10000 nM.

Take `Cc1nc(N2CC3CC3C2)ccc1Cn1cnc(C(=O)N[C@@H]2CCc3c2ncn3C)c1` (stereo partly drawn) [Example 23, 1-[(6-{3-Azabicyclo[3.1.0]hexan-3-yl}-2-methylpyridin-3-yl)methyl]-N-[(4R)-1-methyl-1H,4H,5H,6H-cyclopenta[d]imidazol-4-yl]-1H-imidazole-4-carboxamide]: the results for the IC50 in experiment [1] and in experiment [2] were 1.1 nM and 233 nM, respectively. The Ki in experiment [3] is greater than 10000 nM.

On to `Cc1nc(N2CC3C(C2)C3(F)F)ccc1Cn1cnc(C(=O)N[C@@H]2CCc3c2ncn3C)c1` (stereo partly drawn) [Example 24, 1-[(6-{6,6-Difluoro-3-azabicyclo[3.1.0]hexan-3-yl}-2-methylpyridin-3-yl)methyl]-N-[(4R)-1-methyl-1H,4H,5H,6H-cyclopenta[d]imidazol-4-yl]-1H-imidazole-4-carboxamide], for which the IC50 came to 1 nM in experiment [1] and 181 nM in experiment [2]. Moreover, in experiment [3], the Ki is greater than 10000 nM.

As for `Cc1nc(N2CC3C(C2)C3(F)F)ccc1Cn1cc(C(=O)N[C@@H]2CCc3c2ncn3C)nn1` (stereo partly drawn) [Example 27, 1-[(6-{6,6-Difluoro-3-azabicyclo[3.1.0]hexan-3-yl}-2-methylpyridin-3-yl)methyl]-N-[(4R)-1-methyl-1H,4H,5H,6H-cyclopenta[d]imidazol-4-yl]-1H-1,2,3-triazole-4-carboxamide], the 50% inhibitory concentration (IC50) in experiment [1] was 0.9 nM; in experiment [2], 202 nM. The molecule further displayed a Ki in experiment [3] greater than 10000 nM.

For `CCc1nc(N2CC3C(C2)C3(F)F)ccc1Cn1cc(C(=O)N[C@@H]2CCc3c2ncn3C)cn1` (stereo partly drawn) [Example 36, 1-[(6-{6,6-Difluoro-3-azabicyclo[3.1.0]hexan-3-yl}-2-ethylpyridin-3-yl)methyl]-N-[(4R)-1-methyl-1H,4H,5H,6H-cyclopenta[d]imidazol-4-yl]-1H-pyrazole-4-carboxamide], the IC50 in experiment [1] was determined as 0.5 nM; in experiment [2], 180 nM. Moreover, in experiment [3], the Ki is greater than 10000 nM.

Consider `Cn1cnc2c1CC[C@H]2NC(=O)c1cn(Cc2ccc(N3CC4(CC4)C3)nc2C(F)F)cn1` [Example 47, 1-[(6-{5-Azaspiro[2.3]hexan-5-yl}-2-(difluoromethyl)-pyridin-3-yl)methyl]-N-[(4R)-1-methyl-1H,4H,5H,6H-cyclopenta[d]imidazol-4-yl]-1H-imidazole-4-carboxamide], for which the values for the IC50 in experiment [1] and in experiment [2] were 0.8 nM and 173 nM, respectively. Also, the Ki in experiment [3] is greater than 10000 nM.

With `COCc1nc(N2CC3CC3C2)ccc1Cn1cc(C(=O)N[C@@H]2CCc3c2ncn3C)cn1` (stereo partly drawn) [Example 49, 1-[(6-{3-Azabicyclo[3.1.0]hexan-3-yl}-2-(methoxymethyl)-pyridin-3-yl)methyl]-N-[(4R)-1-methyl-1H,4H,5H,6H-cyclopenta[d]imidazol-4-yl]-1H-pyrazole-4-carboxamide], the results for the IC50 in experiment [1] and in experiment [2] were 2.5 nM and 254 nM, respectively. In experiment [3], the inhibition constant (Ki) was greater than 10000 nM.

On to `CCc1nc(N2CC3(CC3)C2)ccc1Cn1cc(C(=O)N[C@@H]2CCc3c2ncn3C)cn1` [Example 51, 1-[(6-{5-Azaspiro[2.3]hexan-5-yl}-2-ethylpyridin-3-yl)methyl]-N-[(4R)-1-methyl-1H,4H,5H,6H-cyclopenta[d]imidazol-4-yl]-1H-pyrazole-4-carboxamide], for which the figures for the IC50 in experiment [1] and in experiment [2] were 1 nM and 213 nM, respectively. The Ki in experiment [3] was greater than 10000 nM.

On to `Cn1cnc2c1CC[C@H]2NC(=O)c1cnn(Cc2ccc(N3CC4(CC4)C3)nc2C(F)F)c1` [Example 52, 1-[(6-{5-Azaspiro[2.3]hexan-5-yl}-2-(difluoromethyl)-pyridin-3-yl)methyl]-N-[(4R)-1-methyl-1H,4H,5H,6H-cyclopenta[d]imidazol-4-yl]-1H-pyrazole-4-carboxamide], for which the IC50 in experiment [1] turned out to be 1.1 nM; in experiment [2], 155 nM. In experiment [3], this molecule registered a Ki greater than 10000 nM.

Consider `CCc1nc(N2CC3CC3C2)ccc1Cn1cnc(C(=O)N[C@@H]2CCc3c2ncn3C)c1` (stereo partly drawn) [Example 75, 1-[(6-{3-Azabicyclo[3.1.0]hexan-3-yl}-2-ethylpyridin-3-yl)methyl]-N-[(4R)-1-methyl-1H,4H,5H,6H-cyclopenta[d]imidazol-4-yl]-1H-imidazole-4-carboxamide], for which the IC50 worked out at 0.5 nM in experiment [1] and 192 nM in experiment [2]. For the same molecule, in experiment [3], the Ki is greater than 10000 nM.

Take `Cn1cnc2c1CC[C@H]2NC(=O)c1cnn(Cc2ccc(N3CC4C(C3)C4(F)F)nc2)c1` (stereo partly drawn) [Example 80, 1-[(6-{6,6-Difluoro-3-azabicyclo[3.1.0]hexan-3-yl}pyridin-3-yl)methyl]-N-[(4R)-1-methyl-1H,4H,5H,6H-cyclopenta[d]imidazol-4-yl]-1H-pyrazole-4-carboxamide]: the IC50 in experiment [1] is 4.7 nM; in experiment [2], 495 nM. The molecule further had a Ki in experiment [3] greater than 10000 nM.

`Cn1cnc2c1CC[C@H]2NC(=O)c1cnn(Cc2ccc(N3CC4CC4C3)nc2CO)c1` (stereo partly drawn) [Example 86, 1-[(6-{3-Azabicyclo[3.1.0]hexan-3-yl}-2-(hydroxymethyl)-pyridin-3-yl)methyl]-N-[(4R)-1-methyl-1H,4H,5H,6H-cyclopenta[d]imidazol-4-yl]-1H-pyrazole-4-carboxamide]: the results for the IC50 in experiment [1] and in experiment [2] were 1.2 nM and 597 nM, respectively. Also, the Ki in experiment [3] was greater than 10000 nM.

On to `Cc1nc(N2CC3C(C2)C3(F)F)ccc1Cn1cc(C(=O)N[C@@H]2CCc3c2ncn3C)cn1` (stereo partly drawn) [Example 90, 1-[(6-{6,6-Difluoro-3-azabicyclo[3.1.0]hexan-3-yl}-2-methylpyridin-3-yl)methyl]-N-[(4R)-1-methyl-1H,4H,5H,6H-cyclopenta[d]imidazol-4-yl]-1H-pyrazole-4-carboxamide], for which the IC50 was 0.7 nM in experiment [1] and 126 nM in experiment [2]. The molecule also returned a Ki in experiment [3] greater than 10000 nM.

In turn, `Cc1cc(N2CC3CC3C2)ncc1Cn1cc(C(=O)N[C@@H]2CCc3c2ncn3C)cn1` (stereo partly drawn) [Example 113, 1-[(6-{3-Azabicyclo[3.1.0]hexan-3-yl}-4-methylpyridin-3-yl)methyl]-N-[(4R)-1-methyl-1H,4H,5H,6H-cyclopenta[d]imidazol-4-yl]-1H-pyrazole-4-carboxamide] came in with an IC50 in experiment [1] of 9.9 nM. The molecule also registered a Ki in experiment [3] greater than 10000 nM.

Regarding `Cc1nc(N2CC3(CC3)C2)ncc1Cn1cc(C(=O)N[C@@H]2CCc3c2ncn3C)cn1` [Example 222, 1-[(2-{5-Azaspiro[2.3]hexan-5-yl}-4-methylpyrimidin-5-yl)methyl]-N-[(4R)-1-methyl-1H,4H,5H,6H-cyclopenta[d]imidazol-4-yl]-1H-pyrazole-4-carboxamide], the midpoint of inhibition in experiment [1], the IC50, lay at 11.6 nM. The same molecule displayed an inhibition constant (Ki) in experiment [3] of 7280 nM.

(Values after patent publication US12479827B2, “Heteroaromatic carboxamide derivatives as plasma kallikrein inhibitors” (Boehringer Ingelheim International GmbH, priority 2020, dated 2025).)
